Assay results taken from US9399646B2 (Genentech, Inc., priority 2010, dated 2016).

Tests used:
MCF-7 cells = test: Breast cancer cell viability assay (CellTiter-Glo, 5 days); format: cell-based; conditions: 5 days' compound exposure; for IC50: Homo sapiens, MCF7, 120 h
Method: MCF-7 cells were adjusted to a concentration of 20,000 cells per mL in RPMI containing 10% FBS and 20 mM HEPES. 16 microliters of the cell suspension (320 cells) was added to each well of a 384 well plate, and the cells were incubated overnight to allow the cells to adhere. The following day an eleven point, serial semilog dilution of each compound was added to the cells in 16 μL at a final concentration ranging from 0.3-0.000003 μM. After 5 days' compound exposure, 16 μL of CellTiter-GLo (Promega, Madison Wis.) was added to the cells the relative luminescence units (RLUs) of each well was determined CellTiter-Glo added to 32 μL of medium without cells was used to obtain a background value. The Percent viability of each sample was determined as follows: (RLU sample-RLU background/RLU untreated cells-RLU background)×100=% viability.

ER-α in MCF-7 cells = target: T1, ER-α in MCF-7 cells (Homo sapiens, UniProt P03372); test: Breast cancer cell ER-α in cell western assay (SP1); format: cell-based; set-up: endogenous in cells; host or cells: MCF-7; conditions: 4 or 24 hr post compound addition; for Emax: MCF7, SP1 antibody, read-out: ER-α In Cell Western Assay (SP1) Max Response; for DC50: SP1 antibody, read-out: ER-α In Cell Western Assay (SP1) IC50
T1 sequence (P03372 1-595): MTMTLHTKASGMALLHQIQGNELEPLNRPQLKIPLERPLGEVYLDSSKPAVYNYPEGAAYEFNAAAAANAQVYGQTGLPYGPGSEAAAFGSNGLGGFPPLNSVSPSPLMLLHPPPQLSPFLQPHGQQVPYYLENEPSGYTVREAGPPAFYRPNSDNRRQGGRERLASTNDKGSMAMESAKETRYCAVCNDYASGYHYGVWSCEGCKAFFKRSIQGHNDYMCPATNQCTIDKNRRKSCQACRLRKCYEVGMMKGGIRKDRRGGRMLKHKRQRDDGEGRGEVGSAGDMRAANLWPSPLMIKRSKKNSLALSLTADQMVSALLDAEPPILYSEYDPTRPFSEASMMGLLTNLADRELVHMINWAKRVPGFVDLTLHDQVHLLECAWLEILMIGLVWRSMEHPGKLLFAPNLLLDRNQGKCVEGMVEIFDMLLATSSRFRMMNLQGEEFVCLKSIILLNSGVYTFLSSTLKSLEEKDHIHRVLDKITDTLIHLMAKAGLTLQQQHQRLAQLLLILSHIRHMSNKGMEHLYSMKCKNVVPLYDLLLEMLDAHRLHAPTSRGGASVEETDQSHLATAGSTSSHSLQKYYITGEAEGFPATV
Method: MCF-7 cells were adjusted to a concentration of 200,000 cells per mL in RPMI containing 10% charcoal-stripped FBS and 20 mM HEPES. 16 microliters of the cell suspension (3200 cells) was added to each well of a poly-D-lysine 384 well plate, and the cells were incubated overnight to allow the cells to adhere. The following day an eleven point, serial semilog dilution of each compound was added to the cells in 16 μL at a final concentration ranging from 0.3-0.000003 μM. At 4 or 24 hr post compound addition, the cells were fixed (10% formalin in PBS) for 20 minutes. Cells were permeablized in PBS 0.1% Triton and blocked with LICOR blocking buffer (50 μl/well, 90°). The wells were then incubated overnight at 4° C. with SP1 rabbit monoclonal Ab (Thermo Scientific) diluted 1:1000 in LICOR blocking buffer/0.1% Tween-20. Wells which were treated with blocking buffer with Tween but no antibody were used as a background control. Wells were washed with 0.1% Tween-20/PBS and then incubated in goat anti-rabbit IRDye™ 800CW (LICOR Inc.; 1:1000) and DRAQ5 DNA dye (1:2000 for 2 mM stock) diluted in LICOR blocking buffer containing 0.1% Tween-20 and 0.01% SDS for 60 minutes. Cells were washed (50 μl/well, 5′ each) in 0.1% Tween-20/PBS. Plates were scanned on a LICOR Odyssey infrared imaging system. Integrated intensities in the 800 nm channel and 700 nm channel were measured to determine levels of ER and DNA respectively. Percent ER levels were determined as follows: (Integrated intensity 800 nm sample/integrated intensity 700 nm sample)/(Integrated intensity 800 nm untreated cells/integrated intensity 700 nm untreated cells)×100=% ER levels.

SMILES | MCF7 Viability Assay Max Response (MCF-7 cells) | IC50 (MCF-7 cells) [nM] | Emax (ER-α in MCF-7 cells) [%] | DC50 (ER-α in MCF-7 cells) [nM]
O=C(O)/C=C/c1ccc(/C(=C(\c2ccccc2)C2CC2)c2cccc3[nH]ncc23)cc1 [Compound 70, (E)-3-(4-((E)-2-Cyclopropyl-1-(1H-indazol-4-yl)-2-phenylvinyl)phenyl)acrylic acid] | ++ (++ = a single % value ≧ 40%) | ≤ 100 | ≥ 40 | ≤ 100
O=C(O)/C=C/c1ccc(/C(=C(\c2ccccc2Cl)C2CC2)c2cccc3[nH]ncc23)cc1 [Compound 71, (E)-3-(4-((E)-2-(2-Chlorophenyl)-2-cyclopropyl-1-(1H-indazol-4-yl)vinyl)phenyl)acrylic acid] | ++ (++ = a single % value ≧ 40%) | ≤ 100 | ≥ 40 | ≤ 100
CC/C(=C(/c1ccc(/C=C/C(=O)O)cc1)c1ccc2[nH]nnc2c1)c1ccc(F)cc1Cl [Compound 72, (E)-3-(4-((E)-1-(1H-Benzo[d][1,2,3]triazol-5-yl)-2-(2-chloro-4-fluorophenyl)but-1-en-1-yl)phenyl)acrylic acid] | ++ (++ = a single % value ≧ 40%) | ≤ 100 | ≥ 40 | ≤ 100
O=C(O)/C=C/c1ccc(/C(=C(\c2ccc(F)cc2Cl)C2CC2)c2cccc3[nH]ncc23)cc1 [Compound 73, (E)-3-(4-((E)-2-(2-Chloro-4-fluorophenyl)-2-cyclopropyl-1-(1H-indazol-4-yl)vinyl)phenyl)acrylic acid] | ++ (++ = a single % value ≧ 40%) | ≤ 100 | ≥ 40 | ≤ 100
CC/C(=C(/c1ccc(/C=C/C(=O)O)cc1)c1ccc2[nH]c(=O)sc2c1)c1ccccc1 [Compound 75, (E)-3-(4-((E)-1-(2-Oxo-2,3-dihydrobenzo[d]thiazol-6-yl)-2-phenylbut-1-en-1-yl)phenyl)acrylic acid] | ++ (++ = a single % value ≧ 40%) | > 100 | ≥ 40 | 
CC/C(=C(/c1ccc(/C=C/C(=O)O)cc1)c1cc2cn[nH]c2cn1)c1ccccc1 [Compound 81, (E)-3-(4-((E)-2-Phenyl-1-(1H-pyrazolo[3,4-c]pyridin-5-yl)but-1-en-1-yl)phenyl)acrylic acid] | ++ (++ = a single % value ≧ 40%) | > 100 | ≥ 40 | > 100
CC/C(=C(/c1ccc(/C=C/C(=O)O)cc1)c1ccc2[nH]cnc2c1)c1ccccc1 [Compound 83, (E)-3-(4-((E)-1-(1H-Benzo[d]imidazol-5-yl)-2-phenylbut-1-en-1-yl)phenyl)acrylic acid] | ++ (++ = a single % value ≧ 40%) | > 100 | ≥ 40 | 
CC/C(=C(/c1ccc(/C=C/C(=O)O)cc1)c1cc(F)cc2[nH]ncc12)c1ccccc1 [Compound 86, (E)-3-(4-((E)-1-(6-Fluoro-1H-indazol-4-yl)-2-phenylbut-1-en-1-yl)phenyl)acrylic acid] | ++ (++ = a single % value ≧ 40%) | ≤ 100 | ≥ 40 | ≤ 100
CC/C(=C(/c1ccc(/C=C/C(=O)O)cc1)c1cccc2[nH]nnc12)c1ccccc1 [Compound 88, (E)-3-(4-((E)-1-(1H-Benzo[d][1,2,3]triazol-4-yl)-2-phenylbut-1-en-1-yl)phenyl)acrylic acid] | ++ (++ = a single % value ≧ 40%) | > 100 | ≥ 40 | > 100
CC/C(=C(/c1ccc(/C=C/C(=O)O)cc1)c1cccc2[nH]nnc12)c1ccc(F)cc1Cl [Compound 89, (E)-3-(4-((E)-1-(1H-Benzo[d][1,2,3]triazol-4-yl)-2-(2-chloro-4-fluorophenyl)but-1-en-1-yl)phenyl)acrylic acid] | ++ (++ = a single % value ≧ 40%) | ≤ 100 | ≥ 40 | ≤ 100
CC/C(=C(/c1ccc(/C=C/C(=O)O)cc1)c1ccc2c[nH]c(=O)cc2c1)c1ccccc1 [Compound 90, (E)-3-(4-((E)-1-(3-Oxo-2,3-dihydroisoquinolin-6-yl)-2-phenylbut-1-en-1-yl)phenyl)acrylic acid] | ++ (++ = a single % value ≧ 40%) | > 100 | ≥ 40 | > 100
CC/C(=C(/c1ccc(/C=C/C(=O)O)cc1)c1cc(F)c2[nH]ccc2c1)c1ccccc1 [Compound 92, (E)-3-(4-((E)-1-(7-Fluoro-1H-indol-5-yl)-2-phenylbut-1-en-1-yl)phenyl)acrylic acid] | ++ (++ = a single % value ≧ 40%) | ≤ 100 | ≥ 40 | ≤ 100
CC/C(=C(/c1ccc(/C=C/C(=O)O)cc1)c1ccc2[nH]ncc2c1)c1cccc2occc12 [Compound 96, (E)-3-(4-((E)-2-(Benzofuran-4-yl)-1-(1H-indazol-5-yl)but-1-en-1-yl)phenyl)acrylic acid] | ++ (++ = a single % value ≧ 40%) | ≤ 100 | ≥ 40 | ≤ 100
CC/C(=C(/c1ccc(/C=C/C(=O)O)cc1)c1ccc2c(=O)[nH]ccc2c1)c1ccccc1 [Compound 97, (E)-3-(4-((E)-1-(1-Oxo-1,2-dihydroisoquinolin-6-yl)-2-phenylbut-1-en-1-yl)phenyl)acrylic acid] | ++ (++ = a single % value ≧ 40%) | ≤ 100 | ≥ 40 | > 100
CC/C(=C(/c1ccc(/C=C/C(=O)O)cc1)c1ccc2c(c1)CCC(=O)N2)c1ccccc1 [Compound 100, (E)-3-(4-((E)-1-(2-Oxo-1,2,3,4-tetrahydroquinolin-6-yl)-2-phenylbut-1-en-1-yl)phenyl)acrylic acid] | ++ (++ = a single % value ≧ 40%) | > 100 | ≥ 40 | > 100
CC/C(=C(/c1ccc(/C=C/C(=O)O)cc1)c1ccc2c(c1)COC(=O)N2)c1ccccc1 [Compound 101, (E)-3-(4-((E)-1-(2-Oxo-2,4-dihydro-1H-benzo[d][1,3]oxazin-6-yl)-2-phenylbut-1-en-1-yl)phenyl)acrylic acid] | ++ (++ = a single % value ≧ 40%) | > 100 | ≥ 40 | > 100
CC/C(=C(/c1ccc(/C=C/C(=O)O)cc1)c1cccc2[nH]c(=O)ccc12)c1ccccc1 [Compound 102, (E)-3-(4-((E)-1-(2-Oxo-1,2-dihydroquinolin-5-yl)-2-phenylbut-1-en-1-yl)phenyl)acrylic acid] | + (+ = a single % value < 40%) | > 100 | ≥ 40 | > 100
CC/C(=C(/c1ccc(/C=C/C(=O)O)cc1)c1ccc2c(c1)SCC(=O)N2)c1ccccc1 [Compound 103, (E)-3-(4-((E)-1-(3-Oxo-3,4-dihydro-2H-benzo[b][1,4]thiazin-7-yl)-2-phenylbut-1-en-1-yl)phenyl)acrylic acid] | ++ (++ = a single % value ≧ 40%) | > 100 | ≥ 40 | > 100
